From patent US20110038885A1, “CHEMOKINE ANALOGS” (priority 2007, published 2011)
Numbered stars: 1 amine (or outer) side, 2 acyl side, 3 side chain; on linkers, the order of the positions; unused ones are H or OH. Bridge positions count the residues as written; N and C are the ends. Square brackets hold non-standard residues; d marks the D form. Peptide text beside a SMILES is read from it. * marks the point of attachment. Hydrocinnamoyl(4-Me) = Cc1ccc(CCC(=O)*)cc1; NH(CH2)8CO = O=C(CCCCCCCCN[*:1])[*:2]; Diglycolyl = O=C(COCC(=O)[*:2])[*:1]; Decanoyl = CCCCCCCCCC(=O)*; Isobutyryl = CC(C)C(=O)*; Orn = NCCC[C@H](N)C(=O)O; Dab = NCC[C@H](N)C(=O)O; Dap = NC[C@H](N)C(=O)O; Hexanoyl = CCCCCC(=O)*; Ahp = NCCCCCCC(=O)O; Ahx = NCCCCCC(=O)O; GABA = NCCCC(=O)O; βAla = NCCC(=O)O

Tested on: MCP-1
Assay: In vitro chemotaxis (trans-well migration) v MCP-1
Type: cell-based, human
Procedure: To determine whether an agent inhibits a chemokine-induced activity, such as macrophage recruitment, varying amounts of the agent are mixed with cells in the presence of a known chemoattractant. For example, a range of known concentrations of an agent, e.g., a chemokine peptide, is incubated with a defined number (e.g., 10^4-10^6) of human THP-1 monocyte cells in individual wells of the top compartment of a trans-well plate. Chemokine, at a concentration known to cause significant migration of THP-1 cells in the trans-well migration assay, is placed in the lower compartment of a trans-well plate. Cells are then incubated at 37° C. for a period sufficient to allow migration, e.g., 4 hours. After incubation, the cells are gently removed from the top of the filter with a pipette, 20 μl of 20 mM EDTA in simple PBS is added into each top well, and incubated for 20 minutes at 4° C. The filter is carefully flushed with media using a gentle flow, and removed. A standard curve consisting of a two-fold dilution series of THP-1 cells (in 29 μl) is placed to accurately quantify the number of cells that have migrated. Migrated cells are stained with 3 μl of MTT stock dye solution which is added directly into each well (5 mg/ml in RPMI-1640 without phenol red) (Sigma Chemical Co., St. Louis, Mo., USA) and incubated at 37° C. for 4 hours. The media is carefully aspirated from each well, and the converted dye is solubilized by 20 μl of DMSO. Absorbance of converted dye is measured at a wavelength of 595 nm using an ELISA plate reader. The number of migrated cells in each well is then determined by interpolation of the standard curve (see also Imai et al., J. Biol. Chem., 272:15036, 1997). Any method suitable for counting cells can be used, for example, counting with a hemocytometer, incubation of the cells with MTT (see above), or FACS analysis. A negative control assay is also performed, using TGFβ or another non-chemokine chemoattractant (e.g., IL1β or TNFα). To assess whether the agent is cytotoxic, the same concentrations of agent are incubated with THP-1 cells. Agents which 1) are not cytotoxic at levels which inhibit migration, 2) are ineffective at inhibiting the negative control-induced migration, and 3) reduce or inhibit chemokine-induced THP-1 migration, are agents which fall within the scope of the invention.

Row | EC50 [nM] | SMILES
1 | 8 | CC[C@H](C)[C@@H]1NC(=O)[C@H](Cc2c[nH]c3ccccc23)NC(=O)[C@H](CCCCN)NC(=O)[C@@H](NC(C)=O)CC(=O)NC[C@@H](C(N)=O)NC(=O)[C@H](CCC(N)=O)NC1=O [Example 110, Ac-c(Asp-Lys-Trp-Ile-Gln-Dap)-NH2] (Ac-DKWIQ[Dap]-NH2; lactam 1-6)
2 | 9 | CC[C@H](C)[C@@H]1NC(=O)[C@H](Cc2c[nH]c3ccccc23)NC(=O)[C@H](CCCCN)NC(=O)CNC(=O)CC[C@@H](C(N)=O)NC(=O)[C@H](CCC(N)=O)NC1=O [Example 88, c(Gly-Lys-Trp-Ile-Gln-Glu)-NH2] (GKWIQE-NH2; lactam N-6)
3 | 30 | CC[C@H](C)[C@@H]1NC(=O)[C@H](Cc2c[nH]c3ccccc23)NC(=O)[C@H](CCCCN)NC(=O)[C@@H](NC(C)=O)CCC(=O)NC[C@@H](C(N)=O)NC(=O)[C@H](CCC(N)=O)NC1=O [Example 113, Ac-c(Glu-Lys-Trp-Ile-Gln-Dap)-NH2] (Ac-EKWIQ[Dap]-NH2; lactam 1-6)
4 | 30 | CC[C@H](C)[C@@H]1NC(=O)[C@H](Cc2c[nH]c3ccccc23)NC(=O)[C@H](CCCCN)NC(=O)CCCNC(=O)C[C@@H](C(N)=O)NC(=O)[C@H](CCC(N)=O)NC1=O [Example 60, c(Gaba-Lys-Trp-Ile-Gln-Asp)-NH2] ([GABA]KWIQD-NH2; lactam N-6)
5 | 10 | CC[C@H](C)[C@@H]1NC(=O)[C@H](Cc2c[nH]c3ccccc23)NC(=O)[C@H](CCCCN)NC(=O)[C@@H](NC(C)=O)CNC(=O)CC[C@@H](C(N)=O)NC(=O)[C@H](CCC(N)=O)NC1=O [Example 121, Ac-c(Dap-Lys-Trp-Ile-Gln-Glu)-NH2] (Ac-[Dap]KWIQE-NH2; lactam 1-6)
6 | 20 | CCCCCCCCCC(=O)N[C@H]1CSSC[C@@H](C(N)=O)NC(=O)[C@H](CCC(N)=O)NC(=O)[C@H]([C@@H](C)CC)NC(=O)[C@H](Cc2c[nH]c3ccccc23)NC(=O)[C@H](CCCCN)NC1=O [Example 83, Decanoyl-c(Cys-Lys-Trp-Ile-Gln-Cys)-NH2] (Decanoyl-CKWIQC-NH2; disulfide 1-6)
7 | 7 | CC[C@H](C)[C@@H]1NC(=O)[C@H](Cc2c[nH]c3ccccc23)NC(=O)[C@H](CCCCN)NC(=O)[C@@H](NC(C)=O)CSSC[C@H](C(N)=O)NC(=O)[C@H](CCC(N)=O)NC1=O [Example 74, Ac-c(Cys-Lys-Trp-Ile-Gln-D-Cys)-NH2] (Ac-CKWIQ[dC]-NH2; disulfide 1-6)
8 | 10 | CC[C@H](C)[C@@H]1NC(=O)[C@H](Cc2c[nH]c3ccccc23)NC(=O)[C@H](CCCCN)NC(=O)CCCCCCNC(=O)CC[C@@H](C(N)=O)NC(=O)[C@H](CCC(N)=O)NC1=O [Example 94, c(Aha-Lys-Trp-Ile-Gln-Glu)-NH2] ([Ahp]KWIQE-NH2; lactam N-6)
9 | 5 | CCCCCC(=O)N[C@H]1CSSC[C@@H](C(N)=O)NC(=O)[C@H](CCC(N)=O)NC(=O)[C@H]([C@@H](C)CC)NC(=O)[C@H](Cc2c[nH]c3ccccc23)NC(=O)[C@H](CCCCN)NC1=O [Example 81, n-Hexanoyl-c(Cys-Lys-Trp-Ile-Gln-Cys)-NH2] (Hexanoyl-CKWIQC-NH2; disulfide 1-6)
10 | 30 | CC[C@H](C)[C@@H]1NC(=O)[C@H](Cc2c[nH]c3ccccc23)NC(=O)[C@@H](CCCCN)NC(=O)[C@@H](NC(C)=O)CSSC[C@@H](C(N)=O)NC(=O)[C@H](CCC(N)=O)NC1=O [Example 78, Ac-c(Cys-D-Lys-Trp-Ile-Gln-Cys)-NH2] (Ac-C[dK]WIQC-NH2; disulfide 1-6)
11 | 10 | CC[C@H](C)[C@@H]1NC(=O)[C@H](Cc2c[nH]c3ccccc23)NC(=O)[C@H](CCCCN)NC(=O)[C@@H](NC(=O)CCc2ccc(C)cc2)CSSC[C@@H](C(N)=O)NC(=O)[C@H](CCC(N)=O)NC1=O [Example 80, (Des-amino-4-methyl)Phe-c(Cys-Lys-Trp-Ile-Gln-Cys)-NH2] ({Hydrocinnamoyl(4-Me)}-CKWIQC-NH2; disulfide 1-6)
12 | 200 | CC[C@H](C)[C@@H]1NC(=O)[C@H](Cc2c[nH]c3ccccc23)NC(=O)[C@H](CCCCN)NC(=O)COCC(=O)NCCC[C@@H](C(N)=O)NC(=O)[C@H](CCC(N)=O)NC1=O [Example 132, c(Diglycolyl-Lys-Trp-Ile-Gln-Orn)-NH2] (KWIQ[Orn]-NH2; linker N-5 via Diglycolyl)
13 | 8 | CC[C@H](C)[C@@H]1NC(=O)[C@H](Cc2c[nH]c3ccccc23)NC(=O)[C@H](CCCCN)NC(=O)[C@@H](NC(=O)C(C)C)CCCCNC(=O)CC[C@@H](C(N)=O)NC(=O)[C@H](CCC(N)=O)NC1=O [Example 109, Isobutyryl-c(Lys-Lys-Trp-Ile-Gln-Glu)-NH2] (Isobutyryl-KKWIQE-NH2; lactam 1-6)
14 | 45 | CC[C@@H](C)[C@H]1NC(=O)[C@@H](CCC(N)=O)NC(=O)CCNC(=O)C[C@H](C(N)=O)NC(=O)[C@@H](CCCCN)NC(=O)[C@@H](Cc2c[nH]c3ccccc23)NC1=O [Example 195, c((βAla-D-Gln-D-Ile-D-Trp-D-Lys-D-Asp)-NH2] ([βAla][dQ][dI][dW][dK][dD]-NH2; lactam N-6)
15 | 4 | CC[C@H](C)[C@@H]1NC(=O)[C@H](Cc2c[nH]c3ccccc23)NC(=O)[C@H](CCCCN)NC(=O)[C@@H](NC(C)=O)CC(=O)NCC[C@@H](C(N)=O)NC(=O)[C@H](CCC(N)=O)NC1=O [Example 111, Ac-c(Asp-Lys-Trp-Ile-Gln-Dab)-NH2] (Ac-DKWIQ[Dab]-NH2; lactam 1-6)
16 | 20 | CC(C)[C@H](NC(=O)[C@@H](N)Cc1c[nH]c2ccccc12)C(=O)NC1CCC(=O)NC1=O (stereo partly drawn) [Example 181, Trp-Val-α-aminoglutaramide]
17 | 7 | CC[C@H](C)[C@@H]1NC(=O)[C@H](Cc2c[nH]c3ccccc23)NC(=O)[C@@H](N)CSSC[C@@H](C(N)=O)NC(=O)[C@H](CCC(N)=O)NC1=O [Example 2, c(Cys-Trp-Ile-Gln-Cys)-NH2] (H-CWIQC-NH2; disulfide 1-5)
18 | 15 | CC[C@H](C)[C@@H]1NC(=O)[C@H](Cc2c[nH]c3ccccc23)NC(=O)[C@H](CCCCN)NC(=O)CCCCCCCCNC(=O)C[C@@H](C(N)=O)NC(=O)[C@H](CCC(N)=O)NC1=O [Example 97, c(Anc-Lys-Trp-Ile-Gln-Asp)-NH2] ([NH(CH2)8CO]KWIQD-NH2; lactam N-6)
19 | 5 | CC[C@H](C)[C@@H]1NC(=O)[C@H](Cc2c[nH]c3ccccc23)NC(=O)[C@H](CCCCN)NC(=O)CCCCCNC(=O)CC[C@@H](C(N)=O)NC(=O)[C@H](CCC(N)=O)NC1=O [Example 92, c(Ahx-Lys-Trp-Ile-Gln-Glu)-NH2] ([Ahx]KWIQE-NH2; lactam N-6)
20 | 8 | CC[C@H](C)[C@@H]1NC(=O)[C@H](Cc2c[nH]c3ccccc23)NC(=O)[C@H](CCCCN)NC(=O)[C@@H](NC(=O)C(C)C)CSSC[C@@H](C(N)=O)NC(=O)[C@H](CCC(N)=O)NC1=O [Example 58, Isobutyryl-c(Cys-Lys-Trp-Ile-Gln-Cys)-NH2] (Isobutyryl-CKWIQC-NH2; disulfide 1-6)
21 | 8 | CC[C@H](C)[C@@H]1NC(=O)[C@H](Cc2c[nH]c3ccccc23)NC(=O)[C@H](CCCCN)NC(=O)[C@@H](NC(C)=O)CCCCNC(=O)CC[C@@H](C(N)=O)NC(=O)[C@H](CCC(N)=O)NC1=O [Example 124, Ac-c(Lys-Lys-Trp-Ile-Gln-Glu)-NH2] (Ac-KKWIQE-NH2; lactam 1-6)
22 | 8 | CC[C@H](C)[C@@H]1NC(=O)[C@H](Cc2c[nH]c3ccccc23)NC(=O)[C@H](CCCCN)NC(=O)[C@@H](NC(=O)C(C)C)CCC(=O)NCCCC[C@@H](C(N)=O)NC(=O)[C@H](CCC(N)=O)NC1=O [Example 103, Isobutyryl-c(Glu-Lys-Trp-Ile-Gln-Lys)-NH2] (Isobutyryl-EKWIQK-NH2; lactam 1-6)
23 | 8 | CC[C@H](C)[C@@H]1NC(=O)[C@H](Cc2c[nH]c3ccccc23)NC(=O)[C@H](CCCCN)NC(=O)CCCCCCNC(=O)C[C@@H](C(N)=O)NC(=O)[C@H](CCC(N)=O)NC1=O [Example 93, c(Aha-Lys-Trp-Ile-Gln-Asp)-NH2] ([Ahp]KWIQD-NH2; lactam N-6)
24 | 50 | CC[C@@H](C)[C@H]1NC(=O)[C@@H](CCC(N)=O)NC(=O)CCCNC(=O)C[C@H](C(N)=O)NC(=O)[C@@H](CCCCN)NC(=O)[C@@H](Cc2c[nH]c3ccccc23)NC1=O [Example 196, c(Gaba-D-Gln-D-Ile-D-Trp-D-Lys-D-Asp)-NH2] ([GABA][dQ][dI][dW][dK][dD]-NH2; lactam N-6)
25 | 8 | CC[C@H](C)[C@@H]1NC(=O)[C@H](Cc2c[nH]c3ccccc23)NC(=O)[C@H](CCCCN)NC(=O)[C@@H](NC(=O)C(C)C)CCCCNC(=O)C[C@@H](C(N)=O)NC(=O)[C@H](CCC(N)=O)NC1=O [Example 106, Isobutyryl-c(Lys-Lys-Trp-Ile-Gln-Asp)-NH2] (Isobutyryl-KKWIQD-NH2; lactam 1-6)
